US20220347175A1, “PYRIDAZINONE DERIVATIVE” (Sumitomo Dainippon Pharma Co., Ltd., priority 2018, published 2022)
Like-named read-outs stand apart in the source and are kept apart here.

Assays:
human Nav1.1 = target: T1, human Nav1.1 (Homo sapiens, UniProt P35498); assay: Amplification of Nav1.1-derived voltage-dependent sodium current (Nav1.1 current), cell line stably expressing human Nav1.1, automated patch clamp; type: cell-based; conditions: for activation at 1 µM / activation at 50 µM / activation at 10 µM: read-out: Nav1.1 current amplification rate (%)
T1 construct: host or cells: HEK293
Procedure, shortened: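 Automated whole-cell voltage-clamp recordings used HEK293 cells stably expressing human Nav1.1, keeping only cells with >500 pA current, with currents evoked by ramp voltage. Compounds were applied in extracellular fluid with 1% DMSO, and amplification (%) was computed from peak current or AUC after versus before addition.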

human Nav1.5 = target: T2, human Nav1.5 (Homo sapiens, UniProt Q14524); assay: Amplification of Nav1.5-derived voltage-dependent sodium current (Nav1.5 current), cell line stably expressing human Nav1.5, automated patch clamp; type: cell-based
T2 construct: expressed in transfected cells; host or cells: CHO-K1 (T-REx System, ThermoFisher Scientific)
Experimental: Test 2: Evaluation of the Amplification in Nav1.5-Derived Voltage-Dependent Sodium Current (Nav1.5 Current) by Using a Cell Line Stably Expressing Human Nav1.5
A CHO-K1 cell line (Chinese hamster ovary) stably expressing human Nav1.5 (Gene Bank Accession No: P000326.2) was obtained by using purchased T-Rex System (ThermoFisher Scientific, USA), and used for the present test. The effect of test compounds on the amplification of Nav1.5 current was evaluated by using a cell line stably expressing human Nav1.5 and HTS automated patch clamp system, similarly in the method using Nav1.1. In other words, test compounds were added in an extracellular fluid which contained 1% DMSO and 500 nmol/L Tetrodotoxin (TTX), and evaluated as a change of the peak value of Nav1.5 current and the area under the curve (AUC). The induction and the measurement of Nav1.5 current, the pharmacologic effect on Nav1.5 current, and a method for pharmacological evaluation were carried out by the same method as in Nav1.1.

[1] = compound 3 μmol/L, HEK293 stably expressing human Nav1.1
[2] = compound 3 μmol/L, CHO-K1 stably expressing human Nav1.5
[3] = compound 1 μmol/L, HEK293 stably expressing human Nav1.1
[4] = compound 1 μmol/L, CHO-K1 stably expressing human Nav1.5
[5] = 10 μmol/L compound, change of the area under the curve of Nav1.1 current (Test Result 1)
[6] = 10 μmol/L compound, change of the area under the curve of Nav1.5 current (Test Result 1)
[7] = concentration of each compound 1 μmol/L (Test Result 6)
[8] = compound 50 μmol/L, HEK293 stably expressing human Nav1.1
[9] = 10 μmol/L compound (Test Result 5)
[10] = Concentration 1 μM (Test Result 7)
[11] = Concentration 10 μM (Test Result 7)
[12] = Concentration 50 μM (Test Result 7)

T2 sequence (Q14524 1-2015 isoform Q14524-2): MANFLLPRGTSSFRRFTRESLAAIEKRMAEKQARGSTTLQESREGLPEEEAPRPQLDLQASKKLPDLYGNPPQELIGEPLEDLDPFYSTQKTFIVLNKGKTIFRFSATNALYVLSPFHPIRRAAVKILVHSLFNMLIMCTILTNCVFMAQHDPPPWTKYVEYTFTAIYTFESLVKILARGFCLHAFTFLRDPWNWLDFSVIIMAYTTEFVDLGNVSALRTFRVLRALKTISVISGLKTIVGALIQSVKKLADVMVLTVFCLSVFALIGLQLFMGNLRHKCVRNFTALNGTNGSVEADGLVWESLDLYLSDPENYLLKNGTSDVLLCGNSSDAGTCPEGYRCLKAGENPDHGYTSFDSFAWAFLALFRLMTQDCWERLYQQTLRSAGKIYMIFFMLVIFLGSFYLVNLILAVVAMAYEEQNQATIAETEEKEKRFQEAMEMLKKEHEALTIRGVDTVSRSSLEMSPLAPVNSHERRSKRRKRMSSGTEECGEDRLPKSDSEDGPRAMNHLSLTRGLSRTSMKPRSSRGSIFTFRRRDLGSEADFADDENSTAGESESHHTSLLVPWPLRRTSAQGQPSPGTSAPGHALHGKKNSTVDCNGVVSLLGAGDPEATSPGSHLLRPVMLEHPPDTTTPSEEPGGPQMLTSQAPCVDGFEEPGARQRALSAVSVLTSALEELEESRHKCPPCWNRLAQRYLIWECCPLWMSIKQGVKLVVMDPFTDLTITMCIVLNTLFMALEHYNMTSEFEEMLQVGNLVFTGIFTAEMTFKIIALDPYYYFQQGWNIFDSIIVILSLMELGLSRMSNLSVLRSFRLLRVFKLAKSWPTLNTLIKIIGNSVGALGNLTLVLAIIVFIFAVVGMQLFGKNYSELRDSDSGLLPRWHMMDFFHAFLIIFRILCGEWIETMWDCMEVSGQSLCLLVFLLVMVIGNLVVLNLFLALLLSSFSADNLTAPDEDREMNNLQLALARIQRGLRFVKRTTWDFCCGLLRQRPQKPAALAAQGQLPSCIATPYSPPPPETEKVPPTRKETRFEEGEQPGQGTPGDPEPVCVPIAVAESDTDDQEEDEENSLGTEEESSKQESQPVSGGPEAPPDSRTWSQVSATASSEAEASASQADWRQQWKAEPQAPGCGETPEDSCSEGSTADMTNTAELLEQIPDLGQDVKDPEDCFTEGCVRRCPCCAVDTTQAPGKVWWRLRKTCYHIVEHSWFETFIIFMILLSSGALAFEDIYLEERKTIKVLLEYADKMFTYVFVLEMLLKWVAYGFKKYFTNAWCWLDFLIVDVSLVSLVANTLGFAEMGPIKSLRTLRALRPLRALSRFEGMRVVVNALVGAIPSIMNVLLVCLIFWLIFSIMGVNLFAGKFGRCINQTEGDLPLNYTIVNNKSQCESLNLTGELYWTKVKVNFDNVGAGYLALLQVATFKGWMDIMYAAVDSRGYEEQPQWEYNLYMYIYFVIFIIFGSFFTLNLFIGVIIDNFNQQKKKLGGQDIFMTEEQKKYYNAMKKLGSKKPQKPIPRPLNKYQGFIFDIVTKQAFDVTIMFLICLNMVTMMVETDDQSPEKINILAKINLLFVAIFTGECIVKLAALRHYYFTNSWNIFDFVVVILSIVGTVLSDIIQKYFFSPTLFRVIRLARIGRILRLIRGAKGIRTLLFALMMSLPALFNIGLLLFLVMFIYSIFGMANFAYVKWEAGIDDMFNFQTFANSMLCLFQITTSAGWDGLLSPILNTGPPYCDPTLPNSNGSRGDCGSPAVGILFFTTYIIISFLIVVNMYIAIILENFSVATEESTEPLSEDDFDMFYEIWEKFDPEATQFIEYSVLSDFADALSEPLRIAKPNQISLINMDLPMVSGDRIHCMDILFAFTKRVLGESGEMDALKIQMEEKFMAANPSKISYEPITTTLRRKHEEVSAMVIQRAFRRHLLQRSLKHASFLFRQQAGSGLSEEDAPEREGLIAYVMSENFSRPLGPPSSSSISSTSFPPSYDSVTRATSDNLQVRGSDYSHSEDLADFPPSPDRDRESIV

In the case of `CC1CC=C(c2ccc(=O)n(CC(=O)N3CCc4c(C5CCNC5)cccc43)n2)CC1` (mixture of isomers) [Example 268], the “Nav1.1 current amplification rate (%)” value (human Nav1.1; [1]) is reported as 55% and the “Nav1.5 current amplification rate (%)” value (human Nav1.5; [2]) is reported as 22%.
`CC1CC=C(c2ccc(=O)n(CC(=O)N3CCc4c(C5CCN(C)C5)cccc43)n2)CC1` (mixture of isomers) [Example 269] was tested, and the “Nav1.1 current amplification rate (%)” value (human Nav1.1; [1]) was 127% and the “Nav1.5 current amplification rate (%)” value (human Nav1.5; [2]) was 266%.
`CC1CC=C(c2ccc(=O)n(CC(=O)N3CCc4c(CN5CC6CC5CO6)cccc43)n2)CC1` (mixture of isomers) [Example 278] was tested, and the “Nav1.1 current amplification rate (%)” value (human Nav1.1; [3]) was 204% and the “Nav1.5 current amplification rate (%)” value (human Nav1.5; [4]) was 27%.
With `CC1CCC(c2ccc(=O)n(CC(=O)N3CCc4c(N5CCOCC5)cccc43)n2)CC1` (mixture of isomers) [Example 472] the “Nav1.1 current amplification rate (%)” value (human Nav1.1; [5]) was 387% and the “Nav1.5 current amplification rate (%)” value (human Nav1.5; [6]) was 56%.
For `COc1nc2cc(NC(=O)Cn3nc(C4=CCC(C)CC4)ccc3=O)ccc2o1` (racemic) [Example 239], the “Nav1.1 current amplification rate (%)” value (human Nav1.1; [5]) was 310% and the “Nav1.5 current amplification rate (%)” value (human Nav1.5; [6]) was 31%.
With `Cc1noc2cc(NC(=O)Cn3nc(C4=CCC(C)CC4)ccc3=O)ccc12` (racemic) [Example 240] the “Nav1.1 current amplification rate (%)” value (human Nav1.1; [5]) was 241% and the “Nav1.5 current amplification rate (%)” value (human Nav1.5; [6]) was 174%.
`CC1CC=C(c2ccc(=O)n(CC(=O)Nc3cc(F)c4ocnc4c3)n2)CC1` (racemic) [Example 241] was tested, and the “Nav1.1 current amplification rate (%)” value (human Nav1.1; [5]) was 260% and the “Nav1.5 current amplification rate (%)” value (human Nav1.5; [6]) was 26%.
In the case of `CC1CC=C(c2ccc(=O)n(CC(=O)Nc3ccn4ccnc4n3)n2)CC1` (racemic) [Example 242], the “Nav1.1 current amplification rate (%)” value (human Nav1.1; [5]) is reported as 97% and the “Nav1.5 current amplification rate (%)” value (human Nav1.5; [6]) is reported as 10%.
In the case of `CC1CC=C(c2ccc(=O)n(CC(=O)Nc3ccc4oc(C(F)F)nc4c3)n2)CC1` (racemic) [Example 243], the “Nav1.1 current amplification rate (%)” value (human Nav1.1; [5]) is reported as 276% and the “Nav1.5 current amplification rate (%)” value (human Nav1.5; [6]) is reported as 19%.
With `CC1CC=C(c2ccc(=O)n(CC(=O)N3CCc4c(N5CCOCC5)cccc43)n2)CC1` (racemic) [Example 245] the “Nav1.1 current amplification rate (%)” value (human Nav1.1; [3]) was 393% and the “Nav1.5 current amplification rate (%)” value (human Nav1.5; [4]) was 32%.
With `CC1CC=C(c2ccc(=O)n(CC(=O)N3CCc4cc(N5CCOCC5)ccc43)n2)CC1` (racemic) [Example 246] the “Nav1.1 current amplification rate (%)” value (human Nav1.1; [5]) was 136% and the “Nav1.5 current amplification rate (%)” value (human Nav1.5; [6]) was 145%.
Work on `Cc1cc(=O)n(CC(=O)Nc2ccc3ncnn3c2)nc1C1=CCC(C)CC1` (stereo not drawn) [Example 501] yielded an activation at 1 µM (human Nav1.1; [7]) of 33%.
Work on `Cc1cc(=O)n(CC(=O)Nc2ccc3oc(N(C)C)nc3c2)nc1C1=CCC(C)(C)CC1` [Example 504] yielded an activation at 1 µM (human Nav1.1; [7]) of 27%.
`Cc1cc(=O)n(CC(=O)Nc2ccn3cnnc3c2)nc1C1=CCC(C)(C)CC1` [Example 505] showed an activation at 50 µM (human Nav1.1; [8]) of 255%.
`CC1(C)CC(c2ccc(=O)n(CC(=O)Nc3ccc(C#N)cc3)n2)=CCO1` [Example 506] was tested, and the activation at 50 µM (human Nav1.1; [8]) was 10%.
Molecule `CC1(C)C=C(c2ccc(=O)n(CC(=O)Nc3ccc(C#N)cc3)n2)CCO1` [Example 507] has an activation at 10 µM (human Nav1.1; [9]) of 10%.
In the case of `O=C(Cn1nc(C2=CCCCC2)ccc1=O)N1CCc2c(CN3CCOCC3)cccc21` [Example 519], the activation at 1 µM (human Nav1.1; [7]) is reported as 135%.
Molecule `O=C(Cn1nc(C2=CCCCO2)ccc1=O)N1CCc2c(-c3ccnnc3)cccc21` [Example 525] has an activation at 10 µM (human Nav1.1; [9]) of 18%.
`Cc1ccc(Oc2ccc(=O)n(CC(=O)N3CCc4c(-c5ccnnc5)cccc43)n2)cc1` [Example 529] showed an activation at 1 µM (human Nav1.1; [7]) of 43%.
`Cc1ccc(Oc2ccc(=O)n(CC(=O)Nc3ccn4ncnc4c3)n2)cc1` [Example 530] gave an activation at 50 µM (human Nav1.1; [8]) of 9%.
For `CC1CC=C(c2ccc(=O)n(CC(=O)NC3CCn4ccnc4C3)n2)CC1` (stereo not drawn) [Example 533], the activation at 10 µM (human Nav1.1; [9]) was 22%.
For `CC1(C)CC=C(c2ccc(=O)n(CC(=O)NC3CCn4ccnc4C3)n2)CC1` (stereo not drawn) [Example 534], the activation at 10 µM (human Nav1.1; [9]) was 7%.
`COc1cc(=O)n(CC(=O)Nc2ccc3cncnc3c2)nc1C1=CCC(C)(C)CC1` [Example 541] gave an activation at 1 µM (human Nav1.1; [10]) of 325%.
`CC1CC=C(c2ccc(=O)n(CC(=O)Nc3ccc4cccnc4c3)n2)CC1` (stereo not drawn) [Example 543] gave an activation at 1 µM (human Nav1.1; [10]) of 154%.
`CC1CC=C(c2ccc(=O)n(CC(=O)Nc3ccc4ccncc4c3)n2)CC1` (stereo not drawn) [Example 544] was tested, and the activation at 1 µM (human Nav1.1; [10]) was 208%.
`CC1CC=C(c2ccc(=O)n(CC(=O)Nc3ccc4cnccc4c3)n2)CC1` (stereo not drawn) [Example 545] was tested, and the activation at 1 µM (human Nav1.1; [10]) was 223%.
`CC1CC=C(c2ccc(=O)n(CC(=O)Nc3ccc4ncccc4c3)n2)CC1` (stereo not drawn) [Example 546] showed an activation at 1 µM (human Nav1.1; [10]) of 59%.
Molecule `CC1CC=C(c2ccc(=O)n(CC(=O)Nc3ccc(C#N)cc3F)n2)CC1` (stereo not drawn) [Example 547] has an activation at 1 µM (human Nav1.1; [10]) of 70%.
`CC1CC=C(c2ccc(=O)n(CC(=O)Nc3cnc4ccccc4n3)n2)CC1` (stereo not drawn) [Example 548] was tested, and the activation at 1 µM (human Nav1.1; [10]) was 41%.
`CC1CC=C(c2ccc(=O)n(CC(=O)Nc3cccc(N4CCOCC4)c3)n2)CC1` (stereo not drawn) [Example 549] gave an activation at 1 µM (human Nav1.1; [10]) of 33%.
Work on `CC1CC=C(c2ccc(=O)n(CC(=O)Nc3ccc4c(O)ncnc4c3)n2)CC1` (stereo not drawn) [Example 550] yielded an activation at 1 µM (human Nav1.1; [10]) of 31%.
In the case of `CC1CC=C(c2ccc(=O)n(CC(=O)Nc3ncc4ccccc4n3)n2)CC1` (stereo not drawn) [Example 551], the activation at 10 µM (human Nav1.1; [11]) is reported as 16%.
Work on `CC1CC=C(c2ccc(=O)n(CC(=O)Nc3ccn4ncnc4c3F)n2)CC1` (stereo not drawn) [Example 552] yielded an activation at 1 µM (human Nav1.1; [10]) of 24%.
`O=C(Cn1nc(N2CCC3(CCC3)CC2)ccc1=O)Nc1ccc2cncnc2c1` [Example 553] showed an activation at 1 µM (human Nav1.1; [10]) of 155%.
`CCC1CC=C(c2ccc(=O)n(CC(=O)Nc3ccn4ncnc4c3)n2)CC1` (stereo not drawn) [Example 554] was tested, and the activation at 1 µM (human Nav1.1; [10]) was 115%.
With `CCC1CC=C(c2ccc(=O)n(CC(=O)Nc3ccc4ncnn4c3)n2)CC1` (stereo not drawn) [Example 555] the activation at 1 µM (human Nav1.1; [10]) was 80%.
`CN(c1ccc(=O)n(CC(=O)Nc2ccn3ncnc3c2)n1)C1CCCC1` [Example 556] gave an activation at 1 µM (human Nav1.1; [10]) of 13%.
`O=C(Cn1nc(N2CCC3(CC3)C(F)(F)C2)ccc1=O)Nc1ccn2ncnc2c1` [Example 557] showed an activation at 1 µM (human Nav1.1; [10]) of 17%.
For `CN(c1ccc(=O)n(CC(=O)Nc2ccn3ncnc3c2)n1)C1CC1` [Example 558], the activation at 10 µM (human Nav1.1; [11]) was 11%.
For `CN(CC1CC1)c1ccc(=O)n(CC(=O)Nc2ccn3ncnc3c2)n1` [Example 559], the activation at 10 µM (human Nav1.1; [11]) was 34%.
For `N#Cc1ccc(NC(=O)Cn2nc(N3CCC4(CC4)C(F)(F)C3)ccc2=O)cn1` [Example 560], the activation at 1 µM (human Nav1.1; [10]) was 12%.
`CN(c1ccc(=O)n(CC(=O)Nc2ccc(C#N)nc2)n1)C1CCCC1` [Example 561] was tested, and the activation at 1 µM (human Nav1.1; [10]) was 17%.
`CN(c1ccc(=O)n(CC(=O)N2CCc3c(-c4ccnnc4)cccc32)n1)C1CCCC1` [Example 562] was tested, and the activation at 1 µM (human Nav1.1; [10]) was 247%.
In the case of `CN(c1ccc(=O)n(CC(=O)Nc2ccc3cnccc3c2)n1)C1CCCC1` [Example 563], the activation at 1 µM (human Nav1.1; [10]) is reported as 50%.
For `CN(c1ccc(=O)n(CC(=O)Nc2cnc3cccnc3c2)n1)C1CCCC1` [Example 564], the activation at 10 µM (human Nav1.1; [11]) was 73%.
`CN(c1ccc(=O)n(CC(=O)N2CCc3c(N4CCOCC4)cccc32)n1)C1CCCC1` [Example 565] gave an activation at 1 µM (human Nav1.1; [10]) of 62%.
Molecule `Cc1ccc(-c2ccc(=O)n(CC(=O)Nc3ccn4ncnc4c3)n2)c(F)c1` [Example 566] has an activation at 1 µM (human Nav1.1; [10]) of 98%.
For `CN(CC1(C)CC1)c1ccc(=O)n(CC(=O)Nc2ccc3cnccc3c2)n1` [Example 567], the activation at 50 µM (human Nav1.1; [12]) was 281%.
For `CN(CC1(C)CC1)c1ccc(=O)n(CC(=O)N2CCc3c(N4CCOCC4)cccc32)n1` [Example 568], the activation at 1 µM (human Nav1.1; [10]) was 42%.
`CN(c1ccc(=O)n(CC(=O)Nc2ccc3cnccc3c2)n1)C1CC2(CC2)C1` [Example 569] gave an activation at 50 µM (human Nav1.1; [12]) of 393%.
`CN(c1ccc(=O)n(CC(=O)N2CCc3c(N4CCOCC4)cccc32)n1)C1CC2(CC2)C1` [Example 570] gave an activation at 1 µM (human Nav1.1; [10]) of 99%.
In the case of `COc1cc(C)cc(F)c1-c1ccc(=O)n(CC(=O)Nc2ccn3ncnc3c2)n1` [Example 571], the activation at 10 µM (human Nav1.1; [11]) is reported as 24%.
